For experiment [1], the target named is C-C chemokine receptor type 1 (Rattus norvegicus). The experiment in a line: Antagonistic activity at rat CCR1 in CHO-K1 cells.
Experiment [2] is described as follows: Inhibitory effect on transwell chemotaxis induced by 1 nM MIP-1alpha in mouse pre-B cells transfected with human CCR1.

The term pIC50 denotes −log10 of the IC50, conventionally taken in molar units. High values mean a small IC50, low ones a large IC50.

Molecules are shown by their SMILES. pIC50: −log10 of the molar value.

As to `CC(=O)Nc1cc2ccccc2cc1/C=C/C(=O)N1CCN(Cc2ccc(F)cc2)C[C@H]1C` [(R)-N-(3-(3-(4-(4-fluorobenzyl)-2-methylpiperazin-1-yl)-3-oxoprop-1-enyl)naphthalen-2-yl)acetamide], the pIC50 in experiment [1] is 5.82.

The compound `CC(=O)Nc1cc2ncccc2cc1/C=C/C(=O)N1CCN(Cc2ccc(F)cc2)C[C@H]1C` [(R)-N-(6-(3-(4-(4-fluorobenzyl)-2-methylpiperazin-1-yl)-3-oxoprop-1-enyl)quinolin-7-yl)acetamide] gave a pIC50 in experiment [1] of 6.52.

Turning to `COc1cc(/C=C/C(=O)N2C3CCC2CN(Cc2ccc(F)cc2)C3)c(NC(C)=O)cc1Cl` [N-(2-(3-(3-(4-fluorobenzyl)-3,8-diaza-bicyclo[3.2.1]octan-8-yl)-3-oxoprop-1-enyl)-5-chloro-4-methoxyphenyl)acetamide], the results for the pIC50 in experiment [1] and in experiment [2] were 9.00 and 8.12, respectively.

As for `CN(C)CC(=O)Nc1cc(Cl)ccc1/C=C/C(=O)N1C2CCC1CN(Cc1ccc(F)cc1)C2` [N-(2-(3-(3-(4-fluorobenzyl)-3,8-diaza-bicyclo[3.2.1]octan-8-yl)-3-oxoprop-1-enyl)-5-chlorophenyl)-2-(dimethylamino)acetamide], in experiment [1], the pIC50 is 8.00.

In experiment [1], `CC(=O)Nc1cc2ncccc2cc1/C=C/C(=O)N1C2CCC1CN(Cc1ccc(F)cc1)C2` [N-(6-(3-(3-(4-fluorobenzyl)-3,8-diaza-bicyclo[3.2.1]octan-8-yl)-3-oxoprop-1-enyl)quinolin-7-yl)acetamide] showed a pIC50 of 8.22.
